# Measured values reported in patent US7517517B2 (Janssen Pharmaceutica N.V., priority 2002, dated 2009).
# Target: T1, cloned rat mGlu1 receptor (Rattus norvegicus, UniProt P23385)
# T1 construct: expressed in transfected cells; host or cells: CHO cells
# Experiment: Signal transduction at the cloned rat mGlu1 receptor in CHO cells (glutamate-induced Ca2+ rise, FLIPR)
# Type: cell-based
# Conditions: 50% inhibition of the glutamate-induced intracellular Ca2+ rise; CHO cells, FLIPR
# T1 sequence (P23385 19-1199): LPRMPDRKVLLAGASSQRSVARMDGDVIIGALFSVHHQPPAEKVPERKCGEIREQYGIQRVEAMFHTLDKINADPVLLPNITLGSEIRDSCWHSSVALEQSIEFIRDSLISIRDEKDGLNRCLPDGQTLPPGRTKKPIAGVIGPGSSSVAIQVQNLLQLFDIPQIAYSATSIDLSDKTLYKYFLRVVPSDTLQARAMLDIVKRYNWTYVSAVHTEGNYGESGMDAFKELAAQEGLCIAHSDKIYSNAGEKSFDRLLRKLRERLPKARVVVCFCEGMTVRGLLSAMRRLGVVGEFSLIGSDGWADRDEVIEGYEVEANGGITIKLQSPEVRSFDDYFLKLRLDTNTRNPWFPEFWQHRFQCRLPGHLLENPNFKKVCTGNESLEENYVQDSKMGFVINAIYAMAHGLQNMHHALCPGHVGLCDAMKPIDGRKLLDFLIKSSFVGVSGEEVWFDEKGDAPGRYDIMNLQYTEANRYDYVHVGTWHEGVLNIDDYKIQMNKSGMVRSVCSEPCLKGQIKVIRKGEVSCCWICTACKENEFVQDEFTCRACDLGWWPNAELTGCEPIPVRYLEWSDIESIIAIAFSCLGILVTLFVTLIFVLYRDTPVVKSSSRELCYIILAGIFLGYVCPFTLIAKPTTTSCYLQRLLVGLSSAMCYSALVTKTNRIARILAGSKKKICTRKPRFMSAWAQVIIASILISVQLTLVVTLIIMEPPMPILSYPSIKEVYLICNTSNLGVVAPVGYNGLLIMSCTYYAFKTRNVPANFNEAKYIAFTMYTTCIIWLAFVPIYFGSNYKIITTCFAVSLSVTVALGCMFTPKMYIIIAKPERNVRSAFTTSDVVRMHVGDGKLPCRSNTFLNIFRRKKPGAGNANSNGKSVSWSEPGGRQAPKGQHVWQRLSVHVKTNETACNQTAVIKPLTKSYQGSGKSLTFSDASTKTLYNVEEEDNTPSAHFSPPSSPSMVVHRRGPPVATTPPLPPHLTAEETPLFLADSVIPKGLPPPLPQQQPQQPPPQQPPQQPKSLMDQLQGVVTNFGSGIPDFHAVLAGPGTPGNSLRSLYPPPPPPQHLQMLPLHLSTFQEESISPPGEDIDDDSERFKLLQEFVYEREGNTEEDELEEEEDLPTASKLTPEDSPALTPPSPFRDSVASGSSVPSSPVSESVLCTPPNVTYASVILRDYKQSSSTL
row,Structure (SMILES),IC50 [nM]
1,COC1CCC(F)(C(=O)c2ccc3nc4c(cc3c2)CCCO4)CC1 (stereo not shown) [Compound 488],5.37
2,COC1CCC(C(=O)c2ccc3nc4c(cc3c2)CCCO4)CC1 (stereo not shown) [Compound 174],3.24
3,O=C(Cc1ccccc1F)c1ccc2nc3c(cc2c1)CCCS3 [Compound 499],10
4,O=C(Cc1ccccc1)c1ccc2nc3c(cc2c1)CCCO3 [Compound 432],5.79
5,CC1Cc2cc3cc(C(=O)Cc4ccccc4)ccc3nc2O1 (stereo not shown) [Compound 455],8.81
6,O=C(CC1CC2CCC1C2)c1ccc2nc3c(cc2c1)CCCO3 (stereo not shown) [Compound 497],9.44
7,O=C(Cc1ccsc1)c1ccc2nc3c(cc2c1)CCCO3 [Compound 465],7.16
8,O=C(Cc1ccccc1F)c1ccc2nc3c(cc2c1)CCCO3 [Compound 477],5.62
9,O=C(c1ccc2nc3c(cc2c1)CCS3)C1CCCCC1 [Compound 427],7.67
10,Cc1cc2cc3c(cc2cc1C(=O)Cc1ccccc1)CCCS3 [Compound 506],3.31
11,O=C(Cc1ccccc1)c1ccc2nc3c(cc2c1)CCCS3 [Compound 439],9.48

# Second part, the compound after the results:
row,IC50 [nM],Structure (SMILES)
1,2.59,CO[C@H]1CC[C@@H](C(=O)c2ccc3nc4c(cc3c2)CCS4)CC1 [Compound 416]
2,7.33,COC1CCC(C(=O)c2ccc3nc4c(cc3c2)CCCC4)CC1 (stereo not shown) [Compound 420]
3,9.77,CCc1cc2cc(C(=O)Cc3ccccc3)ccc2nc1C [Compound 237]
4,5.85,CCc1cc2cc(C(=O)C3CCC(OC)CC3)c(C)cc2nc1C (stereo not shown) [Compound 214]
5,9.02,CO[C@H]1CC[C@H](C(=O)c2ccc3nc4c(cc3c2)CCS4)CC1 [Compound 418]
6,4.68,COC1CCC(C(=O)c2ccc3nc4c(cc3c2)CCCS4)CC1 (stereo not shown) [Compound 176]
7,4.84,CCc1cc2cc(C(=O)C3CCC(OC)CC3)c(C)cc2nc1Cl (stereo not shown) [Compound 210]
8,8.61,CCc1cc2cc(C(=O)[C@H]3CC[C@@H](OC)CC3)c(C)cc2[nH]c1=O [Compound 419]

# Same assay, conditions: inhibition of glutamate-induced intracellular Ca2+ rise, CHO cells expressing mGlu1 receptor; compounds with pIC50 between 7 and 8
row,Structure (SMILES),IC50 [nM]
1,O=C(Cc1ccc(Br)cc1)c1ccc2nc3c(cc2c1)CCCO3 [Compound 498],16.6
2,O=C(Cc1ccc(F)c(F)c1)c1ccc2nc3c(cc2c1)CCCO3 [Compound 474],74.1
3,O=C(Cc1ccccc1)c1ccc2nc3c(cc2c1)CCC3 [Compound 446],27.5
4,CCc1cc2cc(C(=O)Cc3ccccc3)ccc2nc1N [Compound 289],53.7
5,O=C(CCc1ccccc1)c1ccc2nc3c(cc2c1)CCS3 [Compound 448],49
6,O=C(Cc1ccccc1)c1ccc2nc3c(cc2c1)CCCCC3 [Compound 454],35.5
7,O=C(c1ccc2nc3c(cc2c1)CCCO3)C1CC2CCC1O2 (stereo not shown) [Compound 456],35.5
8,O=C(c1ccc2nc3c(cc2c1)CCS3)C1COc2ccccc2C1 (stereo not shown) [Compound 466],79.4
9,O=C(Cc1ccccc1)c1ccc2nc3sccc3cc2c1 [Compound 462],12.6
10,COC1CCCC(C(=O)c2ccc3nc4c(cc3c2)CCCO4)C1 (stereo not shown) [Compound 437],16.6
11,CCc1cc2cc(C(=O)Cc3ccsc3)ccc2nc1Cl [Compound 296],60.3
12,O=C(c1ccc2nc3c(cc2c1)CCS3)C1(F)CC2CCC1C2 (stereo not shown) [Compound 496],66.1
13,O=C(c1ccc2nc3c(cc2c1)CCS3)C12CC3CC(CC(C3)C1)C2 [Compound 449],17
14,O=C(CCc1ccccc1)c1ccc2nc3c(cc2c1)CCCO3 [Compound 434],83.2
15,O=C(c1ccc2nc3c(cc2c1)CCCO3)C1CC=CCC1 (stereo not shown) [Compound 435],41.7
16,O=C(Cc1ccccc1)c1ccc2nc3c(cc2c1)CCS3 [Compound 441],11.2
17,O=C(c1ccc2nc3c(cc2c1)CCCS3)C1COc2ccccc2O1 (stereo not shown) [Compound 512],74.1

row,Structure (SMILES),IC50 [nM]
1,O=C(c1ccc2nc3c(cc2c1)CCCO3)C12CC3CC(CC(C3)C1)C2 [Compound 433],16.2
2,CN(C)CC(C(=O)c1ccc2nc3c(cc2c1)CCS3)c1ccccc1 (stereo not shown) [Compound 442],93.3
3,CO[C@H]1CC[C@H](C(=O)c2ccc3nc4c(cc3c2)CCCO4)CC1 [Compound 175],19.5
4,O=C(CC1CC2CCC1C2)c1ccc2nc(Cl)ccc2c1 (stereo not shown) [Compound 313],44.7
5,O=C(c1ccc2nc3c(cc2c1)CCCS3)C1CC2CCC1C2 (stereo not shown) [Compound 445],23.4
6,CC1(C(=O)c2ccc3nc4c(cc3c2)CCCO4)CC2CCC1C2 (stereo not shown) [Compound 494],29.5
7,O=C(Cc1cccc(F)c1)c1ccc2nc3c(cc2c1)CCCS3 [Compound 484],28.8
8,CCc1cc2cc(C(=O)Cc3ccccc3)ccc2nc1Cl [Compound 117],44.7
9,O=C(c1ccc2nc3c(cc2c1)CCS3)C1CC2CCC1C2 (stereo not shown) [Compound 447],19.1
10,CCCc1cc2cc(C(=O)Cc3ccccc3)ccc2nc1C [Compound 290],87.1
11,O=C(Cc1cccc(F)c1)c1ccc2nc3c(cc2c1)CCCO3 [Compound 473],47.9
12,O=C(Cc1ccccc1)c1ccc2nc3c(cc2c1)CCO3 [Compound 463],10.5
13,O=C(c1ccc2nc3c(cc2c1)CCCO3)C1CC2C=CC1C2 (stereo not shown) [Compound 461],22.4
14,CCc1cc2cc(C(=O)Cc3ccccc3)ccc2nc1F [Compound 527],58.9
15,O=C(Cc1ccc(F)cc1)c1ccc2nc3c(cc2c1)CCCO3 [Compound 475],19.5
16,COC1CCC(C(=O)c2ccc3nc4c(cc3c2)CCCO4)=CO1 (stereo not shown) [Compound 460],45.7

# The remaining lines, values ahead:
row,IC50 [nM],Structure (SMILES)
1,26.9,COc1nc2ccc(C(=O)[C@H]3CC[C@@H](OC)CC3)cc2cc1C [Compound 98]
2,17.4,CCc1cc2cc(C(=O)C3(C)CCC(OC)CC3)ccc2nc1C (stereo not shown) [Compound 242]
3,18.2,CCc1cc2cc(C(=O)C3CCC(OC)CC3)ccc2nc1NC(=O)CCCC1CCCCC1 (stereo not shown) [Compound 346]
4,56.2,CCc1cc2cc(C(=O)C3CCC(OC)CC3)ccc2nc1NC(=O)Nc1ccccc1SC (stereo not shown) [Compound 373]
5,49,CO[C@H]1CC[C@@H](C(=O)c2ccc3nc(C)c(CN(C)C)cc3c2)CC1 [Compound 287]
6,11.5,O=C(c1ccc2nc3c(cc2c1)CCS3)[C@H]1CC[C@@H](O)CC1 [Compound 421]
7,46.8,CCc1cc2cc(C(=O)C3CCC(OC)CC3)ccc2nc1NC(=O)C1CCC(OC)CC1 (stereo not shown) [Compound 343]
8,38.9,CCc1cc2cc(C(=O)C3CCC(OC)CC3)ccc2nc1NC(=O)C1CCN(C(C)=O)CC1 (stereo not shown) [Compound 333]
9,16.6,CCc1cc2cc(C(=O)C3(F)CCC(OC)CC3)ccc2nc1C (stereo not shown) [Compound 224]
10,21.4,CCc1cc2cc(C(=O)C3CCCC(OC)C3)ccc2nc1C (stereo not shown) [Compound 241]
11,100,CCc1cc2cc(C(=O)[C@H]3CC[C@@H](OC)CC3)ccc2[nH]c1=S [Compound 36]
12,22.9,CCO[C@H]1CC[C@@H](C(=O)c2ccc3nc(C)c(CC)cc3c2)CC1 [Compound 115]
13,20,CCc1cc2cc(C(=O)[C@H]3CC[C@H](OC)CC3)c(C)cc2[nH]c1=O [Compound 213]
14,58.9,CCCO[C@H]1CC[C@@H](C(=O)c2ccc3nc(C)c(CC)cc3c2)CC1 [Compound 255]
15,95.5,O=C(c1ccc2nc3c(cc2c1)CCS3)[C@H]1CC[C@H](O)CC1 [Compound 422]
16,77.6,CCCc1cc2cc(C(=O)CC3CC4CCC3C4)ccc2nc1C (stereo not shown) [Compound 307]
17,13.5,"CCc1cc2cc(C(=O)C3(F)CCC(OC)CC3)ccc2nc1Cl (single isomer, unassigned) [Compound 220]"
18,40.7,CC1CCC(C(=O)c2ccc3nc4c(cc3c2)CCS4)CC1 (stereo not shown) [Compound 430]
19,14.8,CCc1cc2cc(C(=O)C3CCC(OC)CC3)ccc2nc1NC(=O)CCCc1ccc(OC)c(OC)c1 (stereo not shown) [Compound 341]
20,30.2,CCc1cc2cc(C(=O)[C@H]3CC[C@@H](OC)CC3)ccc2nc1N(C)C [Compound 128]

row,IC50 [nM],Structure (SMILES)
1,52.5,CCc1cc2cc(C(=O)C3CCC(OC)CC3)ccc2nc1NC(=O)c1ccc(OC)cc1 (stereo not shown) [Compound 323]
2,37.2,COc1ccc2cc(C(=O)[C@H]3CC[C@@H](OC)CC3)ccc2n1 [Compound 91]
3,33.1,CCc1cc2cc(C(=O)Cc3cccs3)ccc2nc1C [Compound 298]
4,67.6,CCc1cc2cc(C(=O)C3CCC(OC)CC3)ccc2nc1NC(=O)CSCc1ccccc1 (stereo not shown) [Compound 332]
5,11.2,CCc1cc2cc(C(=O)C3CCC(OC)CC3)ccc2nc1NC(=O)c1ccc(=O)[nH]c1 (stereo not shown) [Compound 334]
6,12,CO[C@H]1CC[C@H](C(=O)c2ccc3nc4c(cc3c2)CCCS4)CC1 [Compound 178]
7,60.3,CCc1cc2cc(C(=O)CC3CC4CCC3C4)ccc2nc1C (stereo not shown) [Compound 303]
8,85.1,CCc1cc2cc(C(=O)C3CCC(OC)CC3)ccc2nc1NC(=O)C12CC3CC(CC(C3)C1)C2 (stereo not shown) [Compound 199]
9,38,CCc1cc2cc(C(=O)C3CCC(OC)CC3)ccc2nc1NC(=O)C1CCCO1 (stereo not shown) [Compound 356]
10,39.8,CCc1cc2cc(C(=O)C3CCC(OC)CC3)ccc2nc1NC(=O)Nc1ccc(N(C)C)cc1 (stereo not shown) [Compound 369]
11,12.3,CCc1cc2cc(C(=O)C3CCC(OC)CC3)ccc2nc1NC(=O)CCSC (stereo not shown) [Compound 338]
12,93.3,COCc1cc2cc(C(=O)[C@H]3CC[C@H](OC)CC3)ccc2nc1C [Compound 286]
13,83.2,CCCc1cc2cc(C(=O)[C@H]3CC[C@@H](OC)CC3)ccc2nc1OC [Compound 97]
14,38.9,CCOCC(=O)Nc1nc2ccc(C(=O)C3CCC(OC)CC3)cc2cc1CC (stereo not shown) [Compound 326]
15,56.2,CCc1c(C)nc2ccc(C(=O)[C@H]3CC[C@@H](OC)CC3)cc2c1CC [Compound 108]
16,89.1,CCc1cc2cc(C(=O)C3CC=CCC3)ccc2nc1C (stereo not shown) [Compound 112]
17,45.7,CCc1cc2cc(C(=O)C3CC4CC3CC4O)ccc2nc1Cl (stereo not shown) [Compound 280]
18,30.2,CCc1cc2cc(C(=O)C3CCC(OC)CC3)ccc2nc1NC(=O)C1CCCCC1 (stereo not shown) [Compound 344]
19,20,CCc1cc2cc(C(=O)[C@H]3CCC[C@H](OC)C3)ccc2nc1Cl (relative stereo) [Compound 239]
